What all share (assay type): in vivo
In data set [1] the test system is green peach aphid (Myzus persicae). The data set can be described thus: Myzus persicae test (Example A), spray on infested cabbage leaves. To be noted: single compound. The protocol: (§1) To produce a suitable preparation of active compound, 1 part by weight of active compound is mixed with the stated amount of solvent and emulsifier, and the concentrate is diluted with emulsifier-containing water to the desired concentration.
(§2) Cabbage leaves (Brassica oleracea) which are heavily infested by the green peach aphid (Myzus persicae) are treated by being sprayed with the preparation of the active compound at the desired concentration.
(§3) After the specified period of time, the mortality in % is determined. 100% means that all the aphids have been killed; 0% means that none of the aphids have been killed.

For data set [2], the system named is larvae of the mustard beetle (Phaedon cochleariae). The data set can be described thus: Phaedon cochleariae larvae test (Example B), sprayed cabbage leaves. The conditions noted are these: 144 h, single compound, after 6 d. As to the method:
as §1
Cabbage leaves (Brassica oleracea) are treated by being sprayed with the preparation of the active compound at the desired concentration and are infested with larvae of the mustard beetle (Phaedon cochleariae) as long as the leaves are still moist.
After the specified period of time, the mortality in % is determined. 100% means that all the beetle larvae have been killed; 0% means that none of the beetle larvae have been killed. According to the present application in this test e.g. the following combinations show a synergistic effect in comparison to the single compounds: […]

Data set [3] concerns larvae of the fall army worm (Spodoptera frugiperda). The data set can be described thus: Spodoptera frugiperda test (Example C), sprayed cabbage leaves. To be noted: single compound. As to the method:
as §1
Cabbage leaves (Brassica oleracea) are treated by being sprayed with the preparation of the active compound at the desired concentration and are infested with larvae of the fall army worm (Spodoptera frugiperda) as long as the leaves are still moist.
After the specified period of time, the mortality in % is determined. 100% means that all the caterpillars have been killed; 0% means that none of the caterpillars have been killed. According to the present application in this test e.g. the following combinations show a synergistic effect in comparison to the single compounds: […]

Data set [4] deals with green peach aphid (Myzus persicae). The data set can be described thus: Myzus persicae test (Example E), spray on infested cabbage leaves. The conditions noted are these: single compound. As to the method:
as §1, §2, §3

In data set [5] the test system is cotton aphid (Aphis gossypii). The data set can be described thus: Aphis gossypii test (Example D), spray on infested cotton leaves. The conditions noted are these: single compound. The protocol:
Solvent: 7 parts by weight of dimethylformamide Emulsifier: 2 parts by weight of alkylaryl polyglycolether
as §1
Cotton leaves (Gossypium hirsutum) which are heavily infested by the cotton aphid (Aphis gossypii) are treated by being sprayed with the preparation of the active compound at the desired concentration.
as §3

Setting [6] is: Myzus persicae, 144 h, 500 g/ha, after 6 d.

In general, mortality refers to the percentage killed.

For `CO/N=C(/C1=NOCCO1)c1ccccc1Oc1ncnc(Oc2ccccc2Cl)c1F` [Fluoxastrobin, fluoxastrobin], the mortality at 500 g/ha in data set [1] (setting [6]) is 0%.
On the same count and under the same terms, in the case of `CON=C(C(=O)OC)c1ccccc1CON=C(C)c1cccc(C(F)(F)F)c1` [Trifloxystrobin, trifloxystrobin] it was 0%.
On to `O=C(NCCc1ncc(C(F)(F)F)cc1Cl)c1ccccc1C(F)(F)F` [Fluopyram, fluopyram], for which the mortality at 500 g/ha in data set [2] (500 g/ha) and in data set [1] (setting [6]) was 0% throughout.
`CNC(=O)/C(=N/OC)c1ccccc1Oc1ccccc1` [Metominostrobin, metominostrobin] had a mortality at 500 g/ha in data set [1] (setting [6]) of 0%.
Regarding `CC1(C)[C@H](C=C(Cl)Cl)[C@H]1C(=O)OCc1c(F)c(F)cc(F)c1F` [Transfluthrin], the mortality at 4 g/ha in data set [3] (Spodoptera frugiperda, 144 h, 4 g/ha, after 6 d) came out at 50%. Besides, the mortality at 10 g/ha is 0% in data set [4] (Myzus persicae, 144 h, 10 g/ha, after 6 d) and 5% in data set [5] (Aphis gossypii, 144 h, 10 g/ha, after 6 d). The mortality at 20 g/ha was determined as 0% in data set [2] (20 g/ha) and 70% in data set [1] (Myzus persicae, 144 h, 20 g/ha, after 6 d). For the same compound, the mortality at 100 g/ha in data set [1] (Myzus persicae, 144 h, 100 g/ha, after 6 d) is 80%.
As for `COC(=O)N(OC)c1ccccc1COc1ccn(-c2ccc(Cl)cc2)n1` [Pyraclostrobin, pyraclostrobin], the mortality at 500 g/ha in data set [1] (setting [6]) worked out at 0%.
For `CSC1=N[C@@](C)(c2ccccc2)C(=O)N1Nc1ccccc1` [Fenamidone, fenamidone], the mortality at 200 g/ha in data set [4] (Myzus persicae, 144 h, 200 g/ha, after 6 d) worked out at 0%; in data set [5] (Aphis gossypii, 144 h, 200 g/ha, after 6 d), 0%.
In the case of `Cc1nn(C)c(F)c1C(=O)Nc1ccccc1C(C)CC(C)C` (stereo not drawn) [Penflufen, penflufen], the “Mortality in % after 6 d” value in data set [4] (200 g/ha) and in data set [5] (200 g/ha) was 0% throughout.
`Cn1cc(C(=O)Nc2ccc(F)cc2-c2ccc(Cl)c(Cl)c2)c(C(F)F)n1` [Bixafen, bixafen]: the results for the “Mortality in % after 6 d” value in data set [3] (500 g/ha) and in data set [1] (500 g/ha) were 17% and 0%, respectively.

The record behind these values is US20110152078A1, “Pesticidal Compound Mixtures” (BAYER CROPSCIENCE AG, priority 2009, published 2011).
